Laboratory results as given in patent publication US20230085307A1, “PYRIDAZINONE COMPOUND AND HERBICIDE” (NISSAN CHEMICAL CORPORATION, priority 2019, published 2023).

What was measured:
[1] = tested on: velvetleaf; assay: Test Example 4: herbicidal effect by soil treatment (Table 19, symbol M); assay type: in vivo, velvetleaf (Abutilon theophrasti); conditions: amount of applied herbicide 320 g/ha
Outline: (§1)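 Applied as a water-diluted emulsion, the compound was sprayed onto soil covering newly sown seeds. Evaluation came three weeks after application, in a greenhouse held at 25° C. to 30° C.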

[2] = tested on: chickweed; assay: Test Example 4: herbicidal effect by soil treatment (Table 19, symbol P); assay type: in vivo, common chickweed (Stellaria media); conditions: amount of applied herbicide 320 g/ha
Outline: as §1

[3] = tested on: Chinese sprangletop; assay: Test Example 3: herbicidal effect by foliage application, Wagner pot (Table 18, symbol D); assay type: in vivo, chinese sprangletop (Leptochloa chinensis); conditions: 320 g/ha
Outline: (§2)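 Plants were sown in alluvial soil held under 0.1–0.5 cm standing water and grown 14 days in a greenhouse at 25–30 °C. An emulsifiable formulation, water-diluted to the set dose, was then sprayed onto the foliage, and effects were scored three weeks later using previously defined criteria.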

[4] = tested on: velvetleaf; assay: Test Example 5: herbicidal effect by foliage application, plastic box (Table 20, symbol M); assay type: in vivo, velvetleaf (Abutilon theophrasti); conditions: foliage application, 320 g/ha, three weeks after application
Outline: (§3)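 Sow seeds spot-wise in sterilized diluvial soil; cover with ~1.5 cm soil. Grow 14 days in greenhouse, 25° C. to 30° C. Spray foliage with emulsion diluted to predetermined amount. Rate effect after 3 weeks.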

[5] = tested on: chickweed; assay: Test Example 5: herbicidal effect by foliage application, plastic box (Table 20, symbol P); assay type: in vivo, common chickweed (Stellaria media); conditions: foliage application, 320 g/ha, three weeks after application
Outline: as §3

[6] = tested on: barnyard grass; assay: Test Example 3: herbicidal effect by foliage application, Wagner pot (Table 18, symbol H); assay type: in vivo, barnyard grass (Echinochloa crus-galli); conditions: 320 g/ha
Outline: as §2

[7] = tested on: green foxtail; assay: Test Example 5: herbicidal effect by foliage application, plastic box (Table 20, symbol G); assay type: in vivo, green foxtail (Setaria viridis); conditions: foliage application, 320 g/ha, three weeks after application
Outline: as §3

[8] = tested on: persian speedwell; assay: Test Example 4: herbicidal effect by soil treatment (Table 19, symbol R); assay type: in vivo, Persian speedwell (Veronica persica); conditions: amount of applied herbicide 320 g/ha
Outline: as §1

[9] = tested on: lambsquarters; assay: Test Example 4: herbicidal effect by soil treatment (Table 19, symbol O); assay type: in vivo, lambsquarters (Chenopodium album); conditions: amount of applied herbicide 320 g/ha
Outline: as §1

[10] = tested on: redroot pigweed; assay: Test Example 5: herbicidal effect by foliage application, plastic box (Table 20, symbol N); assay type: in vivo, redroot pigweed (Amaranthus retroflexus); conditions: foliage application, 320 g/ha, three weeks after application
Outline: as §3

[11] = tested on: Italian ryegrass; assay: Test Example 4: herbicidal effect by soil treatment (Table 19, symbol K); assay type: in vivo, Italian ryegrass (Lolium multiflorum); conditions: amount of applied herbicide 320 g/ha
Outline: as §1

[12] = tested on: southern crabgrass; assay: Test Example 5: herbicidal effect by foliage application, plastic box (Table 20, symbol F); assay type: in vivo, southern crabgrass (Digitaria ciliaris); conditions: foliage application, 320 g/ha, three weeks after application
Outline: as §3

[13] = tested on: false cleavers; assay: Test Example 4: herbicidal effect by soil treatment (Table 19, symbol Q); assay type: in vivo, false cleavers (Galium spurium); conditions: amount of applied herbicide 320 g/ha
Outline: as §1

[14] = tested on: Italian ryegrass; assay: Test Example 5: herbicidal effect by foliage application, plastic box (Table 20, symbol K); assay type: in vivo, Italian ryegrass (Lolium multiflorum); conditions: foliage application, 320 g/ha, three weeks after application
Outline: as §3

[15] = tested on: barnyard grass; assay: Test Example 5: herbicidal effect by foliage application, plastic box (Table 20, symbol H); assay type: in vivo, barnyard grass (Echinochloa crus-galli); conditions: foliage application, 320 g/ha, three weeks after application
Outline: as §3

[16] = tested on: windgrass; assay: Test Example 4: herbicidal effect by soil treatment (Table 19, symbol L); assay type: in vivo, windgrass (Apera spica-venti); conditions: amount of applied herbicide 320 g/ha
Outline: as §1

[17] = tested on: green foxtail; assay: Test Example 4: herbicidal effect by soil treatment (Table 19, symbol G); assay type: in vivo, green foxtail (Setaria viridis); conditions: amount of applied herbicide 320 g/ha
Outline: as §1

[18] = tested on: lambsquarters; assay: Test Example 5: herbicidal effect by foliage application, plastic box (Table 20, symbol O); assay type: in vivo, lambsquarters (Chenopodium album); conditions: foliage application, 320 g/ha, three weeks after application
Outline: as §3

[19] = tested on: persian speedwell; assay: Test Example 5: herbicidal effect by foliage application, plastic box (Table 20, symbol R); assay type: in vivo, Persian speedwell (Veronica persica); conditions: foliage application, 320 g/ha, three weeks after application
Outline: as §3

[20] = tested on: wild oat; assay: Test Example 5: herbicidal effect by foliage application, plastic box (Table 20, symbol I); assay type: in vivo, wild oat (Avena fatua); conditions: foliage application, 320 g/ha, three weeks after application
Outline: as §3

[21] = tested on: blackgrass; assay: Test Example 5: herbicidal effect by foliage application, plastic box (Table 20, symbol J); assay type: in vivo, blackgrass (Alopecurus myosuroides); conditions: foliage application, 320 g/ha, three weeks after application
Outline: as §3

[22] = tested on: blackgrass; assay: Test Example 4: herbicidal effect by soil treatment (Table 19, symbol J); assay type: in vivo, blackgrass (Alopecurus myosuroides); conditions: amount of applied herbicide 320 g/ha
Outline: as §1

[23] = tested on: southern crabgrass; assay: Test Example 4: herbicidal effect by soil treatment (Table 19, symbol F); assay type: in vivo, southern crabgrass (Digitaria ciliaris); conditions: amount of applied herbicide 320 g/ha
Outline: as §1

[24] = tested on: barnyard grass; assay: Test Example 4: herbicidal effect by soil treatment (Table 19, symbol H); assay type: in vivo, barnyard grass (Echinochloa crus-galli); conditions: amount of applied herbicide 320 g/ha
Outline: as §1

[25] = tested on: wild oat; assay: Test Example 4: herbicidal effect by soil treatment (Table 19, symbol I); assay type: in vivo, wild oat (Avena fatua); conditions: amount of applied herbicide 320 g/ha
Outline: as §1

[26] = tested on: rice flat sedge; assay: Test Example 3: herbicidal effect by foliage application, Wagner pot (Table 18, symbol E); assay type: in vivo, rice flat sedge (Cyperus iria); conditions: 320 g/ha
Outline: as §2

[27] = tested on: windgrass; assay: Test Example 5: herbicidal effect by foliage application, plastic box (Table 20, symbol L); assay type: in vivo, windgrass (Apera spica-venti); conditions: foliage application, 320 g/ha, three weeks after application
Outline: as §3

[28] = tested on: redroot pigweed; assay: Test Example 4: herbicidal effect by soil treatment (Table 19, symbol N); assay type: in vivo, redroot pigweed (Amaranthus retroflexus); conditions: amount of applied herbicide 320 g/ha
Outline: as §1

## CCCC(=O)Oc1c(C)nn(C)c(=O)c1-c1c(-c2ccc(F)cc2SC)sc2ccccc12 [1-064]
[1]
  herbicidal effect rating, M: velvetleaf: 0 (Herbicidal rate of 5% or less (almost no effect))
[2]
  herbicidal effect rating, P: chickweed: 3 (Herbicidal rate of 40% or more and less than 70%)
[3]
  herbicidal effect on D (Chinese sprangletop), rating 0-5: 0 (Herbicidal rate of 5% or less (almost no effect))
[4]
  herbicidal effect grade, M: velvetleaf: 0 (Herbicidal rate of 5% or less (almost no effect))
[5]
  herbicidal effect grade, P: chickweed: 4 (Herbicidal rate of 70% or more and less than 90%)
[6]
  herbicidal effect on H (barnyard grass), rating 0-5: 3 (Herbicidal rate of 40% or more and less than 70%)
[7]
  herbicidal effect grade, G: green foxtail: 0 (Herbicidal rate of 5% or less (almost no effect))
[8]
  herbicidal effect rating, R: persian speedwell: 0 (Herbicidal rate of 5% or less (almost no effect))
[9]
  herbicidal effect rating, O: lambsquarters: 0 (Herbicidal rate of 5% or less (almost no effect))
[10]
  herbicidal effect grade, N: redroot pigweed: 0 (Herbicidal rate of 5% or less (almost no effect))
[11]
  herbicidal effect rating, K: Italian ryegrass: 0 (Herbicidal rate of 5% or less (almost no effect))
[12]
  herbicidal effect grade, F: southern crabgrass: 0 (Herbicidal rate of 5% or less (almost no effect))
[13]
  herbicidal effect rating, Q: false cleavers: 0 (Herbicidal rate of 5% or less (almost no effect))
[14]
  herbicidal effect grade, K: Italian ryegrass: 0 (Herbicidal rate of 5% or less (almost no effect))
[15]
  herbicidal effect grade, H: barnyard grass: 0 (Herbicidal rate of 5% or less (almost no effect))
[16]
  herbicidal effect rating, L: windgrass: 0 (Herbicidal rate of 5% or less (almost no effect))
[17]
  herbicidal effect rating, G: green foxtail: 0 (Herbicidal rate of 5% or less (almost no effect))
[18]
  herbicidal effect grade, O: lambsquarters: 0 (Herbicidal rate of 5% or less (almost no effect))
[19]
  herbicidal effect grade, R: persian speedwell: 0 (Herbicidal rate of 5% or less (almost no effect))
[20]
  herbicidal effect grade, I: wild oat: 0 (Herbicidal rate of 5% or less (almost no effect))
[21]
  herbicidal effect grade, J: blackgrass: 0 (Herbicidal rate of 5% or less (almost no effect))
[22]
  herbicidal effect rating, J: blackgrass: 0 (Herbicidal rate of 5% or less (almost no effect))
[23]
  herbicidal effect rating, F: southern crabgrass: 0 (Herbicidal rate of 5% or less (almost no effect))
[24]
  herbicidal effect rating, H: barnyard grass: 0 (Herbicidal rate of 5% or less (almost no effect))
[25]
  herbicidal effect rating, I: wild oat: 0 (Herbicidal rate of 5% or less (almost no effect))
[26]
  herbicidal effect on E (rice flat sedge), rating 0-5: 3 (Herbicidal rate of 40% or more and less than 70%)
[27]
  herbicidal effect grade, L: windgrass: 0 (Herbicidal rate of 5% or less (almost no effect))
[28]
  herbicidal effect rating, N: redroot pigweed: 0 (Herbicidal rate of 5% or less (almost no effect))
